Experiments:
[1] = tested on: New Zealand White rabbits; experiment: Mortality/morbidity in the rabbit IOP study; type: in vivo; conditions: for Mortality: rabbits that died or were euthanized between Days 11 and 33: right eye four times daily, Days 1-31; for Mortality (animals found dead or euthanized prior to study completion/number of animals in group): topical right eye 4 × daily, Day 33
Protocol: On Days 1-31, animals received daily topical doses of the appropriate test article into the right eye. Animals were dosed four times per day, with doses administered 2 hours apart. Doses were administered using a calibrated 50-μL pipette. The eyelids were held close for 10 seconds immediately following dosing. The time of each dose administration was recorded.
Animals determined to be moribund were euthanized with an intravenous injection of commercial euthanasia solution.

[2] = tested on: New Zealand White rabbits; experiment: Ophthalmic observations (slit lamp, McDonald Shadduck system) in the rabbit IOP study; type: in vivo; set-up: key to Cornea Score: 1: Some loss of transparency. Only the epithelium and/or the anterior half of the stoma are involved. The underlying structures are clearly visible although some cloudiness may be readily apparent; key to Conjunctival congestion Score: A flushed, reddish color predominantly confined to the palpebral conjunctiva with some perilimbal injection but primarily confined to the lower and upper parts of the eye from the 4:00 to 7:00 and 11:00 to 1:00 positions; key to Ophthalmic Observation (Slit-Lamp): AN: Appeared normal
Protocol: Prior to placement on study, each animal underwent a pre-treatment ophthalmic examination (slit lamp and indirect ophthalmoscopy). Observations were scored according to the McDonald Shadduck system and recorded using a standardized data collection sheet.
Ophthalmic examinations (slit lamp) were performed prior to the first dosing on Days 5, 12, 22, 26, and 33. Ocular findings were scored according to the McDonald Shadduck system and recorded using a standardized data collection sheet.

[3] = tested on: primary human corneal epithelial cells; experiment: IL-1β-stimulated cytokine production in primary HCECs (30-cytokine Luminex kit)
Protocol: Primary HCECs were seeded in 24-well plates. […] Each treatment was performed in triplicate. Media were collected and used for determination of cytokine content using a 30-cytokine Luminex kit. Cell viability was determined by alamarBlue assay (LP06013).
Median fluorescence intensity (MFI) was used to obtain the concentration of each cytokines in pg/ml based on the standard curve of each cytokine assayed by Luminex. The linear range of the standard curve for each cytokine was used for determination of cytokine concentration. Duplicate values for each sample were averaged. Data were expressed as mean±SD. Statistical analysis was performed using one-way ANOVA-Dunnett's test, and P<0.05 was considered statistically significant.

[4] = 10 mg/g (0.5 mg/dose) 4 × daily, Group B, individual rabbits
[5] = 10 mg/g, treated right eye, Day 5
[6] = 10 ng/ml IL-1β-stimulated HCECs, 18 h, P<0.05
[7] = IL-1β-stimulated HCECs, 18 h, P<0.05

SMILES: Cc1ccc2c(NCC(O)(CC(C)(C)c3cc(F)cc4c3OCC4)C(F)(F)F)cccc2n1 (centres unmarked)
- Mortality: rabbits that died or were euthanized between Days 11 and 33 ([1]; 5 mg/g suspension ([…])): two of ten
- Mortality (animals found dead or euthanized prior to study completion/number of animals in group) ([1]; 5 mg/g, […]): 2/10^(5)
- Day of Death (day euthanized or found dead) [1, 4]: 11
- Recorded Notes (mortality) [1, 4]: Found dead. Noted on Day 9 to have significant diarrhea and
- Mortality: rabbits that died or were euthanized between Days 11 and 33 ([1]; 10 mg/g suspension (0.5 mg/dose)): one of ten
- Mortality (animals found dead or euthanized prior to study completion/number of animals in group) ([1]; 10 mg/g, 0.5 mg/dose): 1/10^(4)
- Slit-lamp ocular findings (other findings) ([2]; 1 mg/g suspension, dosed right eye (Group D, No. 3043)): a subconjunctival hemorrhage
- Ophthalmic Observation (Slit-Lamp) ([2]; 1 mg/g, treated right eye, Day 5, 12, 22, 26): AN
- Ophthalmic Observation (Slit-Lamp) ([2]; 1 mg/g, treated right eye, Day 5, 12, 22, 26, 33): AN
- Ophthalmic Observation (Slit-Lamp) ([2]; 1 mg/g, treated right eye, Day 5, 12, 26, 33): AN
- Conjunctival congestion Score ([2]; 1 mg/g, treated right eye, Day 22): 1
- Conjunctival congestion Score ([2]; 5 mg/g, treated right eye, Day 5): 1
- Ophthalmic Observation (Slit-Lamp) ([2]; 5 mg/g, treated right eye, Day 5, 12): AN
- Ophthalmic Observation (Slit-Lamp) ([2]; 5 mg/g, treated right eye, Day 5, 12, 22): AN
- Ophthalmic Observation (Slit-Lamp) ([2]; 5 mg/g, treated right eye, Day 5, 12, 22, 26, 33): AN
- Ophthalmic Observation (Slit-Lamp) ([2]; 5 mg/g, treated right eye, Day 5, 12, 26, 33): AN
- Ophthalmic Observation (Slit-Lamp) ([2]; 5 mg/g, treated right eye, Day 5, 12, 33): AN
- Ophthalmic Observation (Slit-Lamp) ([2]; 5 mg/g, treated right eye, Day 12, 22, 26, 33): AN
- Conjunctival congestion Score ([2]; 5 mg/g, treated right eye, Day 22): 1
- Conjunctival congestion Score ([2]; 5 mg/g, treated right eye, Day 22, 26): 1
- Conjunctival congestion Score ([2]; 5 mg/g, treated right eye, Day 26): 1
- Slit-lamp ocular findings (other findings) ([2]; 10 mg/g suspension, dosed right eye (Group B, No. 3083)): a pinpoint corneal scar
- Ophthalmic Observation (Slit-Lamp) [2, 5]: AN
- Surface area of cornea involvement Score [2, 5]: 1 (1-25% area of stromal cloudiness.)
- Conjunctival congestion Score ([2]; 10 mg/g, treated right eye, Day 5, 12): 1
- Ophthalmic Observation (Slit-Lamp) ([2]; 10 mg/g, treated right eye, Day 5, 12, 22, 26, 33): AN
- Ophthalmic Observation (Slit-Lamp) ([2]; 10 mg/g, treated right eye, Day 5, 12, 22, 33): AN
- Ophthalmic Observation (Slit-Lamp) ([2]; 10 mg/g, treated right eye, Day 5, 22, 26, 33): AN
- Cornea Score ([2]; 10 mg/g, treated right eye, Day 5, pinpoint corneal scar): 1^(2)
- Conjunctival congestion Score ([2]; 10 mg/g, treated right eye, Day 12): 1
- Ophthalmic Observation (Slit-Lamp) ([2]; 10 mg/g, treated right eye, Day 12, 22, 26, 33): AN
- Ophthalmic Observation (Slit-Lamp) ([2]; 10 mg/g, treated right eye, Day 22, 26, 33): AN
- Conjunctival congestion Score ([2]; 10 mg/g, treated right eye, Day 26): 1
- Concentration at which a significant inhibitory effect was observed on IL-6 [3, 6]: 1 nM
- Concentration at which a significant inhibitory effect was observed on MCP-1 [3, 6]: 10 nM
- Concentration at which a significant inhibitory effect was observed on TGF-α [3, 6]: 10 nM
- Concentration at which a significant inhibitory effect was observed on TNF-α [3, 6]: 10 nM
- Potency versus dexamethasone for inhibition of G-CSF production ([3]; IL-1β-stimulated HCECs): more potent than dexamethasone
- Potency versus dexamethasone for inhibition of GM-CSF, IL-8 and RANTES production ([3]; IL-1β-stimulated HCECs): somewhat less potent than dexamethasone
- Potency versus dexamethasone for inhibition of IL-6, IL-7, TGF-α, TNF-α, VGEF and MCP-1 production ([3]; IL-1β-stimulated HCECs): comparable potency
- Inhibition of IL-1β-stimulated production of 6 cytokines (IL-6, IL-7, MCP-1, TGF-α, TNF-α and VEGF) ([3]; IL-1β-stimulated HCECs, 18 h): significantly inhibited
- Concentration at which a significant inhibitory effect was observed on G-CSF [3, 7]: 10 µg/mL
- Concentration at which a significant inhibitory effect was observed on GM-CSF [3, 7]: 10 nM
- Concentration at which a significant inhibitory effect was observed on RANTES [3, 7]: no significant effect

From US20080058373A1, “Compositions and Methods for Treating or Preventing Glaucoma or Progression Thereof” (priority 2006, published 2008)
